One assay deals with CDK4-CYCLIND1 (Homo sapiens, UniProt P11802). Briefly: Microfluidic LabChip inhibition assay, CDK4-CYCLIND1. It is filed as biochemical. To be noted: ATP 200 μM. Here is the method:
(§1) The reaction was terminated by the addition of EDTA. The plates were analyzed using a Caliper LabChip 3000.
(§2) Additional inhibition assays were performed as described above.

The target in the next assay is CDK6-CYCLIND3 (Homo sapiens, UniProt Q00534). Briefly: Microfluidic LabChip inhibition assay, CDK6-CYCLIND3. It is filed as biochemical. Conditions: ATP 300 μM. Here is the method: as §1, §2
Sequence of CDK6-CYCLIND3 (Q00534 whole entry): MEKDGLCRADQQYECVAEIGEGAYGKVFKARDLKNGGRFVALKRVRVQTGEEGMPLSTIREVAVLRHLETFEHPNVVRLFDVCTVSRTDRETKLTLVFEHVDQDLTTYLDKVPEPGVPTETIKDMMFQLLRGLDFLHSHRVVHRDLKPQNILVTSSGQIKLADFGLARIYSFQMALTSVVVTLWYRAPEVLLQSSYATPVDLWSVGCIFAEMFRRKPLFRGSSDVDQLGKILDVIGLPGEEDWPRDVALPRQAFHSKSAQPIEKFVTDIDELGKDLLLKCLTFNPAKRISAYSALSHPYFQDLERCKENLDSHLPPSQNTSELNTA
Sequence of CDK6-CYCLIND3 (P30281 whole entry partner): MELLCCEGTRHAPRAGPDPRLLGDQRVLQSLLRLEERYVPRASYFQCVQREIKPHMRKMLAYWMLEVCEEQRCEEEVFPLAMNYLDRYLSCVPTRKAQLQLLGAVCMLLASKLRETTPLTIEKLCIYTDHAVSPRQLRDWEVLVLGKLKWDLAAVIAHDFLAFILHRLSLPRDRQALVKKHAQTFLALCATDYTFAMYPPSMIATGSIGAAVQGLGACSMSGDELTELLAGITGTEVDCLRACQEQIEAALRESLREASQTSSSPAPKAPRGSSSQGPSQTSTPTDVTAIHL
Setting [1] is: Table 3a, second values in parentheses on the line below, not explained, read-out: CDK4 CyclinD1 IC50.
Setting [2] is: Table 3b, second values in parentheses on the line below, not explained, read-out: CDK4 CyclinD1 IC50.
Setting [3] is: Table 3a, read-out: CDK6 CyclinD3 IC50.
Where [4] appears, read: Table 2, 25° C., read-out: CDK4 IC50.
Setting [5] is: Table 2, 25° C., read-out: CDK6 IC50.

Read-outs that look alike come from different tables or passages of the source.

The IC50 is the concentration needed to halve the response being measured.

Sequence of CDK4-CYCLIND1 (P11802 whole entry): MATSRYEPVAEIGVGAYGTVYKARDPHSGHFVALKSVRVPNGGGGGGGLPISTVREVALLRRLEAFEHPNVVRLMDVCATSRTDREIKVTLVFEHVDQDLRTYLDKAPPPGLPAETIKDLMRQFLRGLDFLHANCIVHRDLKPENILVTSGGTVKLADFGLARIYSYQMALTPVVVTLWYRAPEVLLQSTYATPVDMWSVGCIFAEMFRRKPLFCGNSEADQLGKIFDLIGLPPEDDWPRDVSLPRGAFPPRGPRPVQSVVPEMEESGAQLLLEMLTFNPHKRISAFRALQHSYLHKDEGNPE
Sequence of CDK4-CYCLIND1 (P24385 whole entry partner): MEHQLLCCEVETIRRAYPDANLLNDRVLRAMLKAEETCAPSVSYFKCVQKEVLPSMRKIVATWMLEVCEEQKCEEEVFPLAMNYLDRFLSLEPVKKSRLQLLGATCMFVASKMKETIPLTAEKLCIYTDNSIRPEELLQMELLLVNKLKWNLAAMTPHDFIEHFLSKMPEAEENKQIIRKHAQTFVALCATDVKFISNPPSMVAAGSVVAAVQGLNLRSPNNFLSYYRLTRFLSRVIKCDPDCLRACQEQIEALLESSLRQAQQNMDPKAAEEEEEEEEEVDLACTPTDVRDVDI

On to `N#Cc1cc2cnc(Nc3ccc(N4CCNCC4)c(F)c3)nc2n(C23CC(C2)C3)c1=O` [Compound B147, 8-(bicyclo[1.1.1]pentan-1-yl)-2-((3-fluoro-4-(piperazin-1-yl)phenyl)amino)-7-oxo-7,8-dihydropyrido[2,3-d]pyrimidine-6-carbonitrile], for which the results for the IC50 on CDK4-CYCLIND1 (setting [1]), on CDK4-CYCLIND1 (setting [2]) and on CDK6-CYCLIND3 (setting [3]) were 47 nM, 47 nM and 81.7 nM, respectively.
As for `CC(C)N1CCN(c2ccc(Nc3ncc4cc(C#N)c(=O)n(C56CC(C5)C6)c4n3)nc2)CC1` [Compound B4, 8-(bicyclo[1.1.1]pentan-1-yl)-2-((5-(4-isopropylpiperazin-1-yl)pyridin-2-yl)amino)-7-oxo-7,8-dihydropyrido[2,3-d]pyrimidine-6-carbonitrile], the IC50 at CDK4-CYCLIND1 (setting [4]) came to 213 nM; at CDK6-CYCLIND3 (setting [5]), 154 nM.
Turning to `N#Cc1cc2cnc(Nc3ccc(OCCN4CCCC4)c(F)c3)nc2n(C2CCCC2)c1=O` [Compound B30], the IC50 on CDK4-CYCLIND1 (setting [4]) is 7.62 nM; on CDK6-CYCLIND3 (setting [5]), 24.2 nM.
As for `CN1CCN(c2ccc(Nc3ncc4cc(C#N)c(=O)n(C56CC(C5)C6)c4n3)cc2F)CC1` [Compound B148, 8-(bicyclo[1.1.1]pentan-1-yl)-2-((3-fluoro-4-(4-methylpiperazin-1-yl)phenyl)amino)-7-oxo-7,8-dihydropyrido[2,3-d]pyrimidine-6-carbonitrile], the results for the half-inhibitory concentration (IC50) at CDK4-CYCLIND1 (setting [1]), on CDK4-CYCLIND1 (setting [2]) and at CDK6-CYCLIND3 (setting [3]) were 59.6 nM, 59.6 nM and 102 nM, respectively.
As to `N#Cc1cc2cnc(Nc3ccc(OCCN4CCCC4)nc3)nc2n(C2CCCC2)c1=O` [Compound B28, 8-cyclopentyl-7-oxo-2-((6-(2-(pyrrolidin-1-yl)ethoxy)pyridin-3-yl)amino)-7,8-dihydropyrido[2,3-d]pyrimidine-6-carbonitrile], the IC50 at CDK4-CYCLIND1 (setting [4]) came out at 45 nM; at CDK6-CYCLIND3 (setting [5]), 120 nM.
Turning to `CN(C)CCOc1ccc(Nc2ncc3cc(C#N)c(=O)n(C4CCCC4)c3n2)nc1` [Compound B6, 8-cyclopentyl-2-((5-(2-(dimethylamino)ethoxy)pyridin-2-yl)amino)-7-oxo-7,8-dihydropyrido[2,3-d]pyrimidine-6-carbonitrile], the IC50 at CDK4-CYCLIND1 (setting [4]) was 97.8 nM; on CDK6-CYCLIND3 (setting [5]), 120 nM.
For `CN1CCN(c2ccc(Nc3ncc4cc(C#N)c(=O)n(C56CC(C5)C6)c4n3)cc2)CC1` [Compound B1, 8-(bicyclo[1.1.1]pentan-1-yl)-2-((4-(4-methylpiperazin-1-yl)phenyl)amino)-7-oxo-7,8-dihydropyrido[2,3-d]pyrimidine-6-carbonitrile], in that order: 31.1 nM and 41.5 nM.
For `CC(C)N1CCN(c2cnc(Nc3ncc4cc(C#N)c(=O)n(C5CCCC5)c4n3)cc2C(F)(F)F)CC1` [Compound B29, 8-cyclopentyl-2-((5-(4-isopropylpiperazin-1-yl)-4-(trifluoromethyl)pyridin-2-yl)amino)-7-oxo-7,8-dihydropyrido[2,3-d]pyrimidine-6-carbonitrile], in that order: more than 30000 nM and more than 30000 nM.
For `CCN1CCN(Cc2ccc(Nc3ncc4cc(C#N)c(=O)n(C5CCCC5)c4n3)nc2)CC1` [Compound B37, 8-cyclopentyl-2-((5-((4-ethylpiperazin-1-yl)methyl)pyridin-2-yl)amino)-7-oxo-7,8-dihydropyrido[2,3-d]pyrimidine-6-carbonitrile], in that order: 46.3 nM and 93.6 nM.
Regarding `CN1CCN(c2ccc(Nc3ncc4cc(C#N)c(=O)n(C5CCCC5)c4n3)c(F)c2)CC1` [Compound B27, 8-cyclopentyl-2-((2-fluoro-4-(4-methylpiperazin-1-yl)phenyl)amino)-7-oxo-7,8-dihydropyrido[2,3-d]pyrimidine-6-carbonitrile], the IC50 on CDK4-CYCLIND1 (setting [4]) is 457 nM; at CDK6-CYCLIND3 (setting [5]), 1400 nM.
Consider `CC(C)N1CCN(c2ccc(Nc3ncc4cc(C#N)c(=O)n(C5CCCC5)c4n3)cc2)CC1` [Compound B16, 8-cyclopentyl-2-((4-(4-isopropylpiperazin-1-yl)phenyl)amino)-7-oxo-7,8-dihydropyrido[2,3-d]pyrimidine-6-carbonitrile], for which the IC50 on CDK4-CYCLIND1 (setting [4]) is 1.8 nM; at CDK6-CYCLIND3 (setting [5]) it was 6.32 nM.
For `CN1CCN(c2ccc(Nc3ncc4cc(C#N)c(=O)n(C5CCCC5)c4n3)cc2F)CC1` [Compound B17, 8-cyclopentyl-2-((3-fluoro-4-(4-methylpiperazin-1-yl)phenyl)amino)-7-oxo-7,8-dihydropyrido[2,3-d]pyrimidine-6-carbonitrile], in that order: 1.78 nM and 7.71 nM.
For `N#Cc1cc2cnc(Nc3ccc(OCCN4CCCCC4)nc3)nc2n(C2CCCC2)c1=O` [Compound B8, 8-cyclopentyl-7-oxo-2-((6-(2-(piperidin-1-yl)ethoxy)pyridin-3-yl)amino)-7,8-dihydropyrido[2,3-d]pyrimidine-6-carbonitrile], in that order: 29.1 nM and 55.3 nM.
On to `N#Cc1cc2cnc(Nc3ccc(N4CCNCC4)cn3)nc2n(C23CC(C2)C3)c1=O` [Compound B2, 8-(bicyclo[1.1.1]pentan-1-yl)-7-oxo-2-((5-(piperazin-1-yl)pyridin-2-yl)amino)-7,8-dihydropyrido[2,3-d]pyrimidine-6-carbonitrile], for which the figures for the IC50 on CDK4-CYCLIND1 (setting [4]) and at CDK6-CYCLIND3 (setting [5]) were 307 nM and 253 nM, respectively.
Take `CNC(=O)c1cc2cnc(Nc3ccc(N4CCN(C)CC4)cc3)nc2n(C2CCCC2)c1=O` [Compound B143, 8-cyclopentyl-N-methyl-2-((4-(4-methylpiperazin-1-yl)phenyl)amino)-7-oxo-7,8-dihydropyrido[2,3-d]pyrimidine-6-carboxamide]: the IC50 was 17 nM on CDK4-CYCLIND1 (setting [1]) and 134 nM at CDK6-CYCLIND3 (setting [3]).
Turning to `N#Cc1cc2cnc(Nc3cc(C(F)(F)F)c(N4CCNCC4)cn3)nc2n(C2CCCC2)c1=O` [Compound B10, 8-cyclopentyl-7-oxo-2-((5-(piperazin-1-yl)-4-(trifluoromethyl)pyridin-2-yl)amino)-7,8-dihydropyrido[2,3-d]pyrimidine-6-carbonitrile], the results for the IC50 on CDK4-CYCLIND1 (setting [4]) and at CDK6-CYCLIND3 (setting [5]) were 2820 nM and 9240 nM, respectively.
For `CN1CCN(c2ccc(Nc3ncc4cc(C#N)c(=O)n(C5CCCC5)c4n3)cc2)CC1` [ON123300], in that order: 1.68 nM and 4.76 nM.
For `N#Cc1ccc(N2CCN(c3ncc4cc(C#N)c(=O)n(C5CCCC5)c4n3)CC2)cc1` [Compound B21, 2-(4-(4-cyanophenyl)piperazin-1-yl)-8-cyclopentyl-7-oxo-7,8-dihydropyrido[2,3-d]pyrimidine-6-carbonitrile], in that order: more than 30000 nM and more than 30000 nM.
For `N#Cc1cc2cnc(Nc3ccc(N4CCNCC4)c(F)c3)nc2n(C2CCCC2)c1=O` [Compound B14, 8-cyclopentyl-2-((3-fluoro-4-(piperazin-1-yl)phenyl)amino)-7-oxo-7,8-dihydropyrido[2,3-d]pyrimidine-6-carbonitrile], in that order: 2.03 nM and 7.27 nM.
On to `CN(C)[C@H]1CCN(c2ccc(Nc3ncc4cc(C#N)c(=O)n(C5CCCC5)c4n3)cn2)C1` [Compound B44, (S)-8-cyclopentyl-2-((6-(3-(dimethylamino)pyrrolidin-1-yl)pyridin-3-yl)amino)-7-oxo-7,8-dihydropyrido[2,3-d]pyrimidine-6-carbonitrile], for which the results for the IC50 at CDK4-CYCLIND1 (setting [4]) and at CDK6-CYCLIND3 (setting [5]) were 10.6 nM and 30.9 nM, respectively.
